# Results taken from patent US20160375006A1, “USES OF PARALOG-SELECTIVE INHIBITORS OF GSK3 KINASES” (priority 2012, published 2016).
# Where two headings read alike, the source gives them in different places.
# Assays:
# PKR = molecular target: T1, PKR (Homo sapiens, UniProt P19525); test: Carna kinase panel; assay type: biochemical
# T1 construct: purchased Carna Biosciences
# Experimental: (§1) This was completed utilizing one of two assays depending on the kinase being examined.
# (§2) A solution of IMAP binding reagent (IMAP Screening Express kit; Molecular Devices) (60 μL) was added to each well and incubated for 30 minutes.
# (§3) A solution of termination buffer (QuickScout Screening assist MSA; Carna Biosciences) (60 μL) was added to each well. The entire reaction mixture was then applied to a LabChip3000 system (Caliper Life Science) and the product and substrate peptide peaks were separated and quantified.
# CDK2/CycE1 = CDK2/CycE1 (Homo sapiens, UniProt P24941)
# Experimental: as §1, §2, §3
# (§4) The assay utilized was identical to that of the single point inhibitory activity determination (MSA) but run in dose response. […] A solution of termination buffer (QuickScout Screening assist MSA; Carna Biosciences) (60 μL) was added to each well. The entire reaction mixture was then applied to a LabChip3000 system (Caliper Life Science) and the product and substrate peptide peaks were separated and quantified.
# EPHA5 = EPHA5 (Homo sapiens, UniProt P54756)
# Experimental: as §1, §2, §3, §4
# CDK9/CycT1 = CDK9/CycT1 (Homo sapiens, UniProt P50750)
# Experimental: as §1, §2, §3, §4
# YES = YES (Homo sapiens, UniProt P07947)
# Experimental: as §1, §2, §3
# TNIK = TNIK (Homo sapiens, UniProt Q9UKE5)
# Experimental: as §1, §2, §3, §4
# MAP2K3_Cascade = MAP2K3_Cascade (Homo sapiens, UniProt P46734)
# Experimental: as §1, §2, §3, §4
# PAK2 = PAK2 (Homo sapiens, UniProt Q13177)
# Experimental: as §1, §2, §3, §4
# CK1α = CK1α (Homo sapiens, UniProt P48729)
# Experimental: as §1, §3
# (§5) The assay utilized was identical to that of the single point inhibitory activity determination (MSA) but run in dose response.
# MLK3_Cascade = MLK3_Cascade (Homo sapiens, UniProt Q16584)
# Experimental: as §1, §2, §3, §4
# MAP2K6_Cascade = MAP2K6_Cascade (Homo sapiens, UniProt P52564)
# Experimental: as §1, §2, §3, §4
# EPHA4 = EPHA4 (Homo sapiens, UniProt P54764)
# Experimental: as §1, §2, §3, §4
# MAP3K1_Cascade = MAP3K1_Cascade (Homo sapiens, UniProt Q13233)
# Experimental: as §1, §2, §3, §4
# ALK(R1275Q) = ALK(R1275Q) (Homo sapiens, UniProt Q9UM73, R1275Q)
# Experimental: as §1, §2, §3, §4
# ITK = ITK (Homo sapiens, UniProt Q08881)
# Experimental: as §1, §2, §3, §4
# PKCα = PKCα (Homo sapiens, UniProt P17252)
# Experimental: as §1, §2, §3, §4
# FGFR4(V550E) = FGFR4(V550E) (Homo sapiens, UniProt P22455, V550E)
# Experimental: as §1, §2, §3, §4
# MET(Y1235D) = MET(Y1235D) (Homo sapiens, UniProt P08581, Y1235D)
# Experimental: as §1, §2, §3, §4
# NEK7 = NEK7 (Homo sapiens, UniProt Q8TDX7)
# Experimental: as §1, §2, §3, §4
# JNK2 = JNK2 (Homo sapiens, UniProt P45984)
# Experimental: as §1, §2, §3, §4
# skMLCK = skMLCK (Homo sapiens, UniProt Q9H1R3)
# Experimental: as §1, §2, §3, §4
# FGFR3 = FGFR3 (Homo sapiens, UniProt P22607)
# Experimental: as §2, §3, §4
# RET(M918T) = RET(M918T) (Homo sapiens, UniProt P07949, M918T)
# Experimental: as §1, §2, §3, §4
# CaMK1δ = CaMK1δ (Homo sapiens, UniProt Q8IU85)
# Experimental: as §1, §2, §3, §4
# TSSK2 = TSSK2 (Homo sapiens, UniProt Q96PF2)
# Experimental: as §1, §2, §3
# p38γ = p38γ (Homo sapiens, UniProt P53778)
# Experimental: as §1, §2, §3
# CHK2 = CHK2 (Homo sapiens, UniProt O96017)
# Experimental: as §1, §2, §3, §4
# MRCKα = MRCKα (Homo sapiens, UniProt Q5VT25)
# Experimental: as §1, §2, §3, §4
# SIK = SIK (Homo sapiens, UniProt P57059)
# Experimental: as §1, §2, §3, §4
# EGFR(T790M) = EGFR(T790M) (Homo sapiens, UniProt P00533, T790M)
# Experimental: as §1, §2, §3, §4
# WNK2 = WNK2 (Homo sapiens, UniProt Q9Y3S1)
# Experimental: as §1, §2, §3, §4
# RET(G691S) = RET(G691S) (Homo sapiens, UniProt P07949, G691S)
# Experimental: as §1, §2, §3
# PKCβ2 = PKCβ2 (Homo sapiens, UniProt P05771)
# Experimental: as §1, §2, §3
# MARK2 = MARK2 (Homo sapiens, UniProt Q7KZI7)
# Experimental: as §1, §2, §3, §4
# QIK = QIK (Homo sapiens, UniProt Q9H0K1)
# Experimental: as §1, §2, §3, §4
# PKD1 = PKD1 (Homo sapiens, UniProt Q15139)
# Experimental: as §1, §2, §3, §4
# MGC42105 = MGC42105 (Homo sapiens, UniProt Q8IY84)
# Experimental: as §1, §2, §3, §4
# PIK3CA/PIK3R1 = PIK3CA/PIK3R1 (Homo sapiens, UniProt P42336)
# Experimental: as §1, §2, §3, §4
# FGFR4 = FGFR4 (Homo sapiens, UniProt P22455)
# Chain of FGFR4 (P22455 22-802): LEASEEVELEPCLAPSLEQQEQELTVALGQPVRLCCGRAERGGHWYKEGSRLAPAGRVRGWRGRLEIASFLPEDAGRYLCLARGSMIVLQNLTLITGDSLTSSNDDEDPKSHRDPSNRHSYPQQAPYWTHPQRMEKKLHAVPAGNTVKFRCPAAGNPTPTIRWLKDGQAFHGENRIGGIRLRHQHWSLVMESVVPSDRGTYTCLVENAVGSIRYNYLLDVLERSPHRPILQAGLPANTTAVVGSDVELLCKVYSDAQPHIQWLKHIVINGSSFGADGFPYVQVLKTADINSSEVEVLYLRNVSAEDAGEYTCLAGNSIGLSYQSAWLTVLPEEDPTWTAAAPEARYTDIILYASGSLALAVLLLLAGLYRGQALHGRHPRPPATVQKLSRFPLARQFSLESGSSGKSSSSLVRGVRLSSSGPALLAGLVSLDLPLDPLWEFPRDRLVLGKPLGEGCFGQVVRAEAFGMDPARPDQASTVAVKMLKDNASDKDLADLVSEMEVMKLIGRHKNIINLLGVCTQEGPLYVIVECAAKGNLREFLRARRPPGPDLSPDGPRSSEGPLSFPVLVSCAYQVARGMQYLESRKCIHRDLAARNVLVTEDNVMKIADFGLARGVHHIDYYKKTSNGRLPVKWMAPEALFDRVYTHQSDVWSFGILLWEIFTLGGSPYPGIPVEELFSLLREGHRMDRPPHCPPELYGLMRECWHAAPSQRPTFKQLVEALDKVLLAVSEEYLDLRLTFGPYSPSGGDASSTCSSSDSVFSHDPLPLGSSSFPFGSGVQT
# Experimental: as §1, §2, §3
# Text for MAP3K4_Cascade: as §1, §5
# Chain of RET(M918T) (P07949 29-1114 M918T): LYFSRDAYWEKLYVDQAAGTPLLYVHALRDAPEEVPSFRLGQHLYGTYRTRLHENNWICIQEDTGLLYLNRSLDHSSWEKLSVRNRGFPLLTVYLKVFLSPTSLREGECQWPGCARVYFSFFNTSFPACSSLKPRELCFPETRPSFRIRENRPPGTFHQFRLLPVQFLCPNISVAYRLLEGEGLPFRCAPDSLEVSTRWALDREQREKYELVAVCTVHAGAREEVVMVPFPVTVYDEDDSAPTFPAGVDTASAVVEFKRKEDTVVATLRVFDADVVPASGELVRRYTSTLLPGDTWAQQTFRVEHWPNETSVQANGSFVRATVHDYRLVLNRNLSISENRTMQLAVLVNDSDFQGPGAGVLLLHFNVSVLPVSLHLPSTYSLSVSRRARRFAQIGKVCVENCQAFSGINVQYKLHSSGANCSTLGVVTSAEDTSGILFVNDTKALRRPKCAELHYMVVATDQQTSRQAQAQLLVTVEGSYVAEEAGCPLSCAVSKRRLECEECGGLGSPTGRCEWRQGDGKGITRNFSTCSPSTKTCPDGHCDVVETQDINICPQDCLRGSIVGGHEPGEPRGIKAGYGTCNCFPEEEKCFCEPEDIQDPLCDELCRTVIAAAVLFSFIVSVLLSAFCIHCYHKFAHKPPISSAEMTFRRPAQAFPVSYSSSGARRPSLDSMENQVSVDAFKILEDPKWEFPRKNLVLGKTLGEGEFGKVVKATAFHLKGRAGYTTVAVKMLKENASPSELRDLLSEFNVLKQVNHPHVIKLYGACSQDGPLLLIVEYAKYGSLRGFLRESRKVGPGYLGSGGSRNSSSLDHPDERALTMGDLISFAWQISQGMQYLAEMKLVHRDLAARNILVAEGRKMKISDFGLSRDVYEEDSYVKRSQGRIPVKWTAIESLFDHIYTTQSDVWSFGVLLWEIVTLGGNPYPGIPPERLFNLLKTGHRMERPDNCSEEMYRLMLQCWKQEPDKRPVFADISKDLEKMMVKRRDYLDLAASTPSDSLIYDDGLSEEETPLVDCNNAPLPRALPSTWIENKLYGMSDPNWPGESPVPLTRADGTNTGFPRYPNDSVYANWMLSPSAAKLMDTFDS
# Chain of FGFR4(V550E) (P22455 22-802 V550E): as the sequence (P22455 22-802) above, with V529E counted along it
# Chain of TNIK (Q9UKE5 whole entry): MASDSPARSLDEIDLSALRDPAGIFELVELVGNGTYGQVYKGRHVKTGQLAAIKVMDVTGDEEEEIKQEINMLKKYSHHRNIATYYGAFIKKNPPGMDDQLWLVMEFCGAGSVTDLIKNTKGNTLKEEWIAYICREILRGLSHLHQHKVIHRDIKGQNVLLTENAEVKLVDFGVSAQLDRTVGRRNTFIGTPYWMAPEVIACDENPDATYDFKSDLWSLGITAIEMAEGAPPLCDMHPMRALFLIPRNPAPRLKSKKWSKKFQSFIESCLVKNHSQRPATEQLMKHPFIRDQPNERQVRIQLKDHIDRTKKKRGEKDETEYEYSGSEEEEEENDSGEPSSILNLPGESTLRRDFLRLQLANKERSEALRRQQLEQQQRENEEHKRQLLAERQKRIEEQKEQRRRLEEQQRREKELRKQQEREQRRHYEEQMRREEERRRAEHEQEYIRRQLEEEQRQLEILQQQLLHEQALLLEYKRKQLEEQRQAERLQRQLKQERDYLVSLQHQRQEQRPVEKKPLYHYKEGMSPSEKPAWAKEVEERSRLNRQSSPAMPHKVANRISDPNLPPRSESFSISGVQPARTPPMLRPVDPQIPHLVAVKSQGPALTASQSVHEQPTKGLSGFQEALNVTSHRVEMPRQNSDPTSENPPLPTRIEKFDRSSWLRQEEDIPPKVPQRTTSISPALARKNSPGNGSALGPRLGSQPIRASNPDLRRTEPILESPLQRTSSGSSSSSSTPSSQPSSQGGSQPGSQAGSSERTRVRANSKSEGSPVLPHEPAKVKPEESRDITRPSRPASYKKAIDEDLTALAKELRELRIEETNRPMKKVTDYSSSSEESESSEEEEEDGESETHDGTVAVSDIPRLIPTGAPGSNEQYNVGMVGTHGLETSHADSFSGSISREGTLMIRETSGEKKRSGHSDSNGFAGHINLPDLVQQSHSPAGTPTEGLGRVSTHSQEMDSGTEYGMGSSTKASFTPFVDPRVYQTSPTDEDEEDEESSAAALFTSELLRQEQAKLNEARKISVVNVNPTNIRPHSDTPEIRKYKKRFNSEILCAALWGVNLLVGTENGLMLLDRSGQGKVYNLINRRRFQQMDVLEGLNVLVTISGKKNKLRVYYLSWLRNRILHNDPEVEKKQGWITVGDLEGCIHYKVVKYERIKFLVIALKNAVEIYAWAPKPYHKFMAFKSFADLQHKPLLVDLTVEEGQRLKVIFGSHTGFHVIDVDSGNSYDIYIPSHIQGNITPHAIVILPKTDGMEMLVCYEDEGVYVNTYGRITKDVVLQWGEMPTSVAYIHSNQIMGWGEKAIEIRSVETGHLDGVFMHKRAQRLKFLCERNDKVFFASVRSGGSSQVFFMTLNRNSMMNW
# Chain of ITK (Q08881 whole entry): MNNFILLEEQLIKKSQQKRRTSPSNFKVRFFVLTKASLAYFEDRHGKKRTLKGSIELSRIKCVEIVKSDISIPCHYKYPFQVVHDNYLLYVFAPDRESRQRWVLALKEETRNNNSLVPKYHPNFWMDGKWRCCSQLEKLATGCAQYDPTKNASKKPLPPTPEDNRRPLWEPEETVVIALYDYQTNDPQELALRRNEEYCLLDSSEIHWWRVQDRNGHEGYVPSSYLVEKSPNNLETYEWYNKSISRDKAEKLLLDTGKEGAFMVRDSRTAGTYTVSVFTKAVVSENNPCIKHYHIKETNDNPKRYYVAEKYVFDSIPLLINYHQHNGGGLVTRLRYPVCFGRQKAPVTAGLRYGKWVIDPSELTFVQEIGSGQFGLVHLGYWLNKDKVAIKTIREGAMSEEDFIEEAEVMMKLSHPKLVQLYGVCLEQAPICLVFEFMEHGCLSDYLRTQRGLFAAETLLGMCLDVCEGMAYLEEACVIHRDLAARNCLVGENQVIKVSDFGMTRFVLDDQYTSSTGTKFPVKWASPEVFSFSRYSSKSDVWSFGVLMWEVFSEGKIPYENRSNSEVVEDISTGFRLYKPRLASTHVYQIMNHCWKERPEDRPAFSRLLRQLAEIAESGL
# Chain of MGC42105 (Q8IY84 whole entry): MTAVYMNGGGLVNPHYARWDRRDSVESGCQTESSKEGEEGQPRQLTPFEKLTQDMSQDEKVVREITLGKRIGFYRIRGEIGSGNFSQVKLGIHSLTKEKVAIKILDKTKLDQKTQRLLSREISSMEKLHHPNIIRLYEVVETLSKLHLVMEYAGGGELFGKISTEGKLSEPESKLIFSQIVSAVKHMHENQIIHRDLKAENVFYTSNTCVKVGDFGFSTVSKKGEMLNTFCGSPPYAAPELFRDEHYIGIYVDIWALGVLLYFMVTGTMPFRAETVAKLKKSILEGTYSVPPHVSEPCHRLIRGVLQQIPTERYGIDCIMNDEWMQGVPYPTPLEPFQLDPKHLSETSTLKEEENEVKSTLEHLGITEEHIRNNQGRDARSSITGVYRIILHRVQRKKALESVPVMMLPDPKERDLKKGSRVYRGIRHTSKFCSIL
# Chain of MAP2K6_Cascade (P52564 whole entry): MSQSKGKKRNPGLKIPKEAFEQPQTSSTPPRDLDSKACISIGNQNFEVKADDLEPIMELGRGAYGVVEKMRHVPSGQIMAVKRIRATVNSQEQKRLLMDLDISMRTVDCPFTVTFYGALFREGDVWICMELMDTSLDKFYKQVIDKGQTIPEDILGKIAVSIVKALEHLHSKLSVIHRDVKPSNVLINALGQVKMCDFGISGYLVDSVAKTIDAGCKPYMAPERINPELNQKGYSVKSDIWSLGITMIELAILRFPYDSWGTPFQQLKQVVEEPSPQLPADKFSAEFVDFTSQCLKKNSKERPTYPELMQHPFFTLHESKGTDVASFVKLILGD
# Chain of NEK7 (Q8TDX7 whole entry): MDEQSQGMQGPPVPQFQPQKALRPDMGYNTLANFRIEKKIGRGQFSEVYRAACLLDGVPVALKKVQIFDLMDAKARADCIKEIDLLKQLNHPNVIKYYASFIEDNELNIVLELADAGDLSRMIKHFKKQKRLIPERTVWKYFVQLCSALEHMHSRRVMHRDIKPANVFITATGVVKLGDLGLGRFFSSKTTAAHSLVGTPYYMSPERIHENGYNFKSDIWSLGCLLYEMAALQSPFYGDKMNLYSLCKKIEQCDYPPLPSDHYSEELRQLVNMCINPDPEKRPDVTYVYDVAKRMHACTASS
# Chain of RET(G691S) (P07949 29-1114 G691S): as the sequence (P07949 29-1114 M918T) above, with G663S, T890M counted along it
smiles,measurement,setting,value
CC[C@@]1(c2ccccc2)C2=C(CC(C)(C)CC2=O)Nc2n[nH]cc21 [BRD0705],% Inhibition at 10 μM,PKR,2.0%
same,% Inhibition at 10 μM,CDK2/CycE1; CDK2/CycE1,53.4%
same,IC50,CDK2/CycE1; read-out: IC50 CDK2/CycE1,9.43 µM
same,% Inhibition at 10 μM,EPHA5,12.7%
same,% Inhibition at 10 μM,MAP3K4_Cascade,11.6%
same,% Inhibition at 10 μM,CDK9/CycT1,8.4%
same,% Inhibition at 10 μM,YES,7.9%
same,% Inhibition at 10 μM,TNIK,6.8%
same,% Inhibition at 10 μM,MAP2K3_Cascade,6.7%
same,% Inhibition at 10 μM,PAK2,6.4%
same,% Inhibition at 10 μM,CK1α,6.0%
same,% Inhibition at 10 μM,MLK3_Cascade,4.6%
same,% Inhibition at 10 μM,MAP2K6_Cascade,4.2%
same,% Inhibition at 10 μM,EPHA4,4.0%
same,% Inhibition at 10 μM,MAP3K1_Cascade,1.8%
same,% Inhibition at 10 μM,ALK(R1275Q),0.7%
same,% Inhibition at 10 μM,ITK,0.3%
same,% Inhibition at 10 μM,PKCα,−0.5%
same,% Inhibition at 10 μM,FGFR4(V550E),−0.5%
same,% Inhibition at 10 μM,MET(Y1235D),−1.0%
same,% Inhibition at 10 μM,NEK7,−1.0%
same,% Inhibition at 10 μM,JNK2,−2.5%
same,% Inhibition at 10 μM,skMLCK,−2.5%
same,% Inhibition at 10 μM,FGFR3,−2.8%
same,% Inhibition at 10 μM,RET(M918T),−2.9%
same,% Inhibition at 10 μM,CaMK1δ,−3.0%
same,% Inhibition at 10 μM,TSSK2,−3.4%
same,% Inhibition at 10 μM,p38γ,−3.4%
same,% Inhibition at 10 μM,CHK2,−3.6%
same,% Inhibition at 10 μM,MRCKα,−3.8%
same,% Inhibition at 10 μM,SIK,−4.8%
same,% Inhibition at 10 μM,EGFR(T790M),−4.9%
same,% Inhibition at 10 μM,WNK2,−5.0%
same,% Inhibition at 10 μM,RET(G691S),−5.6%
same,% Inhibition at 10 μM,PKCβ2,−5.7%
same,% Inhibition at 10 μM,MARK2,−6.2%
same,% Inhibition at 10 μM,QIK,−6.4%
same,% Inhibition at 10 μM,PKD1,−6.8%
same,% Inhibition at 10 μM,MGC42105,−9.9%
same,% Inhibition at 10 μM,PIK3CA/PIK3R1,−10.7%
same,% Inhibition at 10 μM,FGFR4,−13.4%
CC(C)(C)Cc1[nH]nc2c1[C@](C)(c1ccccc1)C1=C(CC(C)(C)CC1=O)N2 [BRD3731],% Inhibition 10 μM,PKR; 10 μM,3.1%
same,IC50,CDK2/CycE1; CDK2/CycE1,8.8 µM
same,% Inhibition 10 μM,"CDK2/CycE1; CDK2/CycE1, 10 μM",42.6%
same,Fold Selectivity,CDK2/CycE1; IC50 CDK2/CycE1 / IC50 GSK3β,326.9 fold
same,% Inhibition 10 μM,EPHA5; 10 μM,−5.5%
same,% Inhibition 10 μM,MAP3K4_Cascade; 10 μM,12.4%
same,% Inhibition 10 μM,CDK9/CycT1; 10 μM,11.3%
same,% Inhibition 10 μM,YES; 10 μM,1.6%
same,% Inhibition 10 μM,TNIK; 10 μM,−1.2%
same,% Inhibition 10 μM,MAP2K3_Cascade; 10 μM,−8.8%
same,% Inhibition 10 μM,PAK2; 10 μM,0.0%
same,% Inhibition 10 μM,CK1α; 10 μM,−5.6%
same,% Inhibition 10 μM,MLK3_Cascade; 10 μM,−0.8%
same,% Inhibition 10 μM,MAP2K6_Cascade; 10 μM,3.3%
same,% Inhibition 10 μM,EPHA4; 10 μM,−2.7%
same,% Inhibition 10 μM,MAP3K1_Cascade; 10 μM,4.0%
same,% Inhibition 10 μM,ALK(R1275Q); 10 μM,1.9%
same,% Inhibition 10 μM,ITK; 10 μM,2.8%
same,% Inhibition 10 μM,PKCα; 10 μM,8.1%
same,% Inhibition 10 μM,FGFR4(V550E); 10 μM,0.1%
same,% Inhibition 10 μM,MET(Y1235D); 10 μM,1.2%
same,% Inhibition 10 μM,NEK7; 10 μM,−3.2%
same,% Inhibition 10 μM,JNK2; 10 μM,−3.9%
same,% Inhibition 10 μM,skMLCK; 10 μM,9.4%
same,% Inhibition 10 μM,FGFR3; 10 μM,−0.7%
same,% Inhibition 10 μM,RET(M918T); 10 μM,−2.2%
same,% Inhibition 10 μM,CaMK1δ; 10 μM,16.7%
same,% Inhibition 10 μM,TSSK2; 10 μM,3.8%
same,% Inhibition 10 μM,p38γ; 10 μM,−2.6%
same,% Inhibition 10 μM,CHK2; 10 μM,1.5%
same,% Inhibition 10 μM,MRCKα; 10 μM,4.3%
same,% Inhibition 10 μM,SIK; 10 μM,8.2%
same,% Inhibition 10 μM,EGFR(T790M); 10 μM,−4.0%
same,% Inhibition 10 μM,WNK2; 10 μM,1.6%
same,% Inhibition 10 μM,RET(G691S); 10 μM,−2.3%
same,% Inhibition 10 μM,PKCβ2; 10 μM,3.8%
same,% Inhibition 10 μM,MARK2; 10 μM,16.5%
same,% Inhibition 10 μM,QIK; 10 μM,−4.1%
same,% Inhibition 10 μM,PKD1; 10 μM,8.9%
same,% Inhibition 10 μM,MGC42105; 10 μM,−2.4%
same,% Inhibition 10 μM,PIK3CA/PIK3R1; 10 μM,42.5%
same,% Inhibition 10 μM,FGFR4; 10 μM,−8.1%
